The results in this text go back to patent US11066393B2, “Indolin-2-one derivatives” (Hoffmann-La Roche Inc., priority 2015, dated 2021).

One assay has as its target T1, mouse ENT-1 transporter (Mus musculus, UniProt Q9JIM1).
T1 construct: expressed in transfected cells
T1 sequence (Q9JIM1 1-460): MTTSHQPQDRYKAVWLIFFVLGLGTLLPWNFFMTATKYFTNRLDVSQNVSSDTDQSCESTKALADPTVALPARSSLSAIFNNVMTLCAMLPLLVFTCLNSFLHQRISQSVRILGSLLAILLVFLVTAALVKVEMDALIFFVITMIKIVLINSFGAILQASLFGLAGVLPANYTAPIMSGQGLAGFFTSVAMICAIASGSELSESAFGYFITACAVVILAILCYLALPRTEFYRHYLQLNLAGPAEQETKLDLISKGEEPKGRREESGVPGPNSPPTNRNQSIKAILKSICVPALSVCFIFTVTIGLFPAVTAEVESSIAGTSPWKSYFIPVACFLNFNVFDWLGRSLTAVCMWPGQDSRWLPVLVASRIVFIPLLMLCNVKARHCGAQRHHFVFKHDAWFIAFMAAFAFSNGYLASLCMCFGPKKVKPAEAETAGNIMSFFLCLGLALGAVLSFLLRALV
Put plainly: Adenosine transport activity (ENT1, [3H]-adenosine uptake). In kind it is cell-based. The note with it: stable cells expressing mouse ENT-1; [2,8-3H]-adenosine 6 nM, 20 min. The method, then: To measure adenosine transport activity of ENT-1 mammalian cells, stable cells expressing the mouse ENT-1 transporter were plated on day 1 in 96-well culture plates at the density of 60,000 cells/well, in complete DMEM/F12 medium supplemented with glutamax, 10% FBS and 10 μg/ml puromycin. On day 2, the medium was aspirated and the cells were washed twice with uptake buffer (10 mM Hepes-Tris, pH 7.4 containing 150 mM NaCl, 1 mM CaCl2, 2.5 mM KCl, 2.5 mM MgSO4, 10 mM D-glucose) (UB). For inhibition experiments, cells were then incubated at RT with various concentrations of compounds with 1% DMSO final. Non-specific uptake was defined in the presence of 10 μM S-(4-Nitrobenzyl)-6-thioinosine (NBTI, Sigma Cat #N2255).
A solution containing [2,8-^3H]-adenosine 6 nM (40 Ci/mmol, American Radiolabeled chemicals Inc, Cat #ART 0287A) was then immediately added to the wells. The plates were then incubated for 20 min with gentle shaking and the reaction was stopped by aspiration of the mixture and washing (three times) with ice-cold UB. The cells were lysed by the addition of scintillation liquid, shaken 3 hours and the radioactivity in the cells was estimated using a microplates scintillation counter (TopCount NXT, Packard).

The test system of assay [1] is L-687,414-induced hyperlocomotion. The assay can be described thus: Reduction of L-687,414-induced hyperlocomotion. It is filed as in vivo, mouse. Conditions: mice, dose 30 mg/kg ip, 15 min before s.c. 50 mg/kg L-687,414. From the text:
The authors described that hyperlocomotion induced by L-687,414 was inhibited by a series of known antipsychotic drugs. […] These findings predict antipsychotic activity for the present compounds, making them useful for the treatment of positive (psychosis) and negative symptoms of schizophrenia, substance abuse, alcohol and drug addiction, obsessive-compulsive disorders, cognitive impairment, bipolar disorders, mood disorders, major depression, resistant depression, anxiety disorders, Alzheimer's disease, autism, Parkinson's disease, chronic pain, borderline personality disorder, sleep disturbances, chronic fatigue syndrome, stiffness, antiinflammatory effects in arthritis and balance problems, epilepsy and neurodevelopmental disorders with co-morbid epilepsy.
The described compounds of formula I reduce L-687,414-induced hyperlocomotion. This was assessed by using a computerized Digiscan 16 Animal Activity Monitoring System (Omnitech Electronics, Columbus, Ohio) to quantify locomotor activity. Animals were kept under a 12 h light/dark cycle and experiments were performed during the light period. Each activity monitoring chamber consisted of a Plexiglas box (41×41×28 cm; W×L×H) with sawdust bedding on the floor surrounded by invisible horizontal and vertical infrared sensor beams. The test boxes were divided by a Plexiglas cross providing each mouse with 20×20 cm of moving space. Cages were connected to a Digiscan Analyzer linked to a computer that constantly collected the beam status information. Records of photocell beam interruptions for individual animals were taken every 5 min over the duration of the experimental session and the sum of the first 6 periods was used as the final parameter. At least 8 mice were used in each treatment group. Compounds were administered i.p. 15 min before a s.c. injection of 50 mg/kg of L-687,414. Mice were then transferred from their home cage to the recording chambers for a 15-min habituation phase allowing free exploration of the new environment. Horizontal activity was then recorded for a 30-min time period. The % inhibition of L-687,414-induced hyperlocomotion was calculated according to the equation: ((Veh+L-687,414 horizontal activity−drug+L-687,414 horizontal activity)/Veh+L-687,414 horizontal activity)×100
ID50 values, defined as doses of each compound producing 50% inhibition of L-687,414-induced hyperlocomotion, were calculated by linear regression analysis of a dose-response data using an Excel-based computer-fitting program. As data was not presupposed to be normally distributed, groups treated with test compounds were statistically compared with the control (vehicle-treated) group using one-tailed Mann Whitney U tests. In statistics, the Mann-Whitney U test (also called the Mann-Whitney-Wilcoxon (MWW) or Wilcoxon rank-sum test) is a non-parametric statistical hypothesis test for assessing whether one of two samples of independent observations tends to have larger values than the other. It is one of the most well-known non-parametric significance tests. […] P values given in table 1 are one-tailed since only decreases in locomotion were expected and tested for (Mann, H. B., Whitney, D. R. (1947), “On a Test of Whether one of Two Random Variables is Stochastically Larger than the Other”, Annals of Mathematical Statistics, 18 (1), 50-60).

Consider `CNC(=O)c1cncc(N2C(=O)C(C)(C)c3ccc(-c4cnc(C)nc4)cc32)n1` [Example 2, 6-(3,3-Dimethyl-6-(2-methylpyrimidin-5-yl)-2-oxoindolin-1-yl)-N-methylpyrazine-2-carboxamide], for which, at mouse ENT-1 transporter, inhibition was half-maximal at 28 nM (IC50). Also, in assay [1], the “Inhibition, ip [%] of L-687,414-induced hyperlocomotion” value (shortened to “Inhibition, ip [%]”) was 97.5%. In the case of `COCCNC(=O)c1cncc(N2C(=O)C(C)(C)c3ccc(-c4cnc(C)nc4)cc32)n1` [Example 7, 6-(3,3-Dimethyl-6-(2-methylpyrimidin-5-yl)-2-oxoindolin-1-yl)-N-(2-methoxyethyl)pyrazine-2-carboxamide], the IC50 – broadly, the concentration at which inhibition is half-maximal – against mouse ENT-1 transporter worked out at 88.4 nM. For the same molecule, the “Inhibition, ip [%]” value in assay [1] came out at 88.1%.

`Cc1ncc(-c2ccc3c(c2)N(c2cnc(C(=O)N(C)C)cn2)C(=O)C3(C)C)cn1` [Example 11, 5-[3,3-Dimethyl-6-(2-methylpyrimidin-5-yl)-2-oxoindol-1-yl]-dimethylpyrazine-2-carboxamide] yielded an IC50 against mouse ENT-1 transporter of 123 nM. The “Inhibition, ip [%]” value in assay [1] stood at 98.4%. In turn, `CNC(=O)c1ccnc(N2C(=O)C(C)(C)c3ccc(-c4cnc(C)nc4)cc32)n1` [Example 16, 2-(3,3-Dimethyl-6-(2-methylpyrimidin-5-yl)-2-oxoindolin-1-yl)-N-methylpyrimidine-4-carboxamide] came in with an IC50 against mouse ENT-1 transporter of 241 nM. In addition, the “Inhibition, ip [%]” value in assay [1] is given as 94.6%. At mouse ENT-1 transporter, `CNC(=O)c1cccc(N2C(=O)C(C)(C)c3ccc(-c4cnc(C)nc4)cc32)n1` [Example 22, 6-(3,3-Dimethyl-6-(2-methylpyrimidin-5-yl)-2-oxoindolin-1-yl)-N-methylpicolinamide] came in with a concentration for half-maximal inhibition (IC50) of 8.5 nM. Also, the “Inhibition, ip [%]” value in assay [1] is listed as 95.6%. The corresponding values for `Cc1ncc(-c2ccc3c(c2)N(c2cccc(C(=O)NC4CC4)n2)C(=O)C3(C)C)cn1` [Example 24, N-Cyclopropyl-6-(3,3-dimethyl-6-(2-methylpyrimidin-5-yl)-2-oxoindolin-1-yl)picolinamide] are 45.8 nM and 99.1%.

`Cc1ncc(-c2ccc3c(c2)N(c2ccc(C(=O)N(C)C)cn2)C(=O)C3(C)C)cn1` [Example 29, 6-(3,3-Dimethyl-6-(2-methylpyrimidin-5-yl)-2-oxoindolin-1-yl)-N,N-dimethylnicotinamide]: at mouse ENT-1 transporter, the IC50 turned out to be 585 nM. The “Inhibition, ip [%]” value in assay [1] amounted to 93%. In the case of `Cc1ncc(-c2ccc3c(c2)N(c2ccc4c(c2)C(=O)N(C)C4)C(=O)C3(C)C)cn1` [Example 37, 3,3-Dimethyl-1-(2-methyl-3-oxoisoindolin-5-yl)-6-(2-methylpyrimidin-5-yl)indolin-2-one], it took 668 nM to reach half-maximal inhibition against mouse ENT-1 transporter (IC50).

As for `Cc1ncc(-c2ccc3c(c2)N(c2ccc4c(n2)C(=O)NC4(C)C)C(=O)C3(C)C)cn1` [Example 38, 2-(3,3-Dimethyl-6-(2-methylpyrimidin-5-yl)-2-oxoindolin-1-yl)-5,5-dimethyl-5H-pyrrolo[3,4-b]pyridin-7(6H)-one], the half-inhibitory concentration (IC50) against mouse ENT-1 transporter stood at 239 nM.

In turn, `Cc1ncc(-c2ccc3c(c2)N(c2cncc(C(=O)NC4CC4)n2)C(=O)C3(C)C)cn1` [Example 39, N-Cyclopropyl-6-(3,3-dimethyl-6-(2-methylpyrimidin-5-yl)-2-oxoindolin-1-yl)pyrazine-2-carboxamide] showed an IC50 at mouse ENT-1 transporter of 76.4 nM. Same read-out and setting: next, `Cc1ncc(-c2ccc3c(c2)N(c2cncc(C(=O)NC4CC(F)(F)C4)n2)C(=O)C3(C)C)cn1` [Example 40, N-(3,3-Difluorocyclobutyl)-6-(3,3-dimethyl-6-(2-methylpyrimidin-5-yl)-2-oxoindolin-1-yl)pyrazine-2-carboxamide]: 323 nM; `Cc1ncc(-c2ccc3c(c2)N(c2cncc(C(=O)NC4CCC4)n2)C(=O)C3(C)C)cn1` [Example 42, N-Cyclobutyl-6-(3,3-dimethyl-6-(2-methylpyrimidin-5-yl)-2-oxoindolin-1-yl)pyrazine-2-carboxamide]: 129 nM. With `Cc1ncc(-c2ccc3c(c2)N(c2cncc(C(=O)NC4COC4)n2)C(=O)C3(C)C)cn1` [Example 43, 6-(3,3-Dimethyl-6-(2-methylpyrimidin-5-yl)-2-oxoindolin-1-yl)-N-(oxetan-3-yl)pyrazine-2-carboxamide], the midpoint of inhibition against mouse ENT-1 transporter, the IC50, lay at 319 nM. Still for that read-out and setting: the result for `Cc1ncc(-c2ccc3c(c2)N(c2cncc(C(=O)NC(C)(C)C)n2)C(=O)C3(C)C)cn1` [Example 44, N-(tert-Butyl)-6-(3,3-dimethyl-6-(2-methylpyrimidin-5-yl)-2-oxoindolin-1-yl)pyrazine-2-carboxamide] reads 243 nM. `CNC(=O)c1nc(N2C(=O)C(C)(C)c3ccc(-c4cnc(C)nc4)cc32)cn1C` [Example 45, 4-(3,3-Dimethyl-6-(2-methylpyrimidin-5-yl)-2-oxoindolin-1-yl)-N,1-dimethyl-1H-imidazole-2-carboxamide] showed an IC50 at mouse ENT-1 transporter of 21 nM. Same read-out and setting: next, `Cc1ncc(-c2ccc3c(c2)N(c2cn(C)c(C(=O)N(C)C)n2)C(=O)C3(C)C)cn1` [Example 46, 4-(3,3-Dimethyl-6-(2-methylpyrimidin-5-yl)-2-oxoindolin-1-yl)-N,N,1-trimethyl-1H-imidazole-2-carboxamide]: 46.9 nM.
